Test results from patent publication US20020147230A1, “Aminal Diones as potassium channel openers” (priority 2001, published 2002).
Where two headings read alike, the source gives them in different places. Blank lines part the entries; values can stand above or below the molecule they belong to.

Assays:
[1] = tested on: primary cultured guinea-pig urinary bladder (GPB) cells; assay: Membrane hyperpolarization (MHP) assay, DiBAC(4)3 / FLIPR; format: cell-based; conditions: for EC50: membrane hyperpolarization in guinea-pig bladder cells
Procedure: Compounds were evaluated for potassium channel opening activity using primary cultured guinea-pig urinary bladder (GPB) cells.
For the preparation of urinary bladder smooth muscle cells, urinary bladders were removed from male guinea-pigs (Hartley, Charles River, Wilmington, Mass.) weighing 300-400 g and placed in ice-cold Ca^2+-free Krebs solution (composition, mM: KCl, 2.7; KH2PO4, 1.5; NaCl, 75; Na2HPO4, 9.6; Na2HPO4.7H2O, 8; MgSO4, 2; glucose, 5; HEPES, 10; pH 7.4). Cells were isolated by enzymatic dissociation as previously described with minor modifications (Klockner and Isenberg, Pflugers Arch. (1985), 405, 329-339), hereby incorporated by reference. The bladder was cut into small sections and incubated in 5 mL of the Kreb's solution containing 1 mg/mL collagenase (Sigma, St. Louis, Mont.) and 0.2 mg/mL pronase (Calbiochem, La Jolla, Calif.) with continuous stirring in a cell incubator for 30 minutes. The mixture was then centrifuged at 1300× g for 5 minutes, and the pellet resuspended in Dulbecco's PBS (GIBCO, Gaithersburg, Md.) and recentrifuged to remove residual enzyme. The cell pellet was resuspended in 5 mL growth media (composition: Dulbecco's modified Eagle's medium supplemented with 10% fetal bovine serum, 100 units/mL penicillin, 100 units/mL streptomycin and […] amphotericin B) and further dissociated by pipetting the suspension through a flame-polished Pasteur pipette and passing it through a polypropylene mesh membrane (Spectrum, Houston, Tex.). The cell density was adjusted to 100,000 cells/mL by resuspension in growth media. Cells were plated in clear-bottomed black 96-well plates (Packard) for membrane potential studies at a density of 20,000 cells/well and maintained in a cell incubator with 90% air:10% CO2 until confluent. Cells were confirmed to be of smooth muscle type by cytoskeletal staining using a monoclonal mouse anti human-α-smooth muscle actin (Biomeda, Foster City, Calif.).
Functional activity at potassium channels was measured by evaluating changes in membrane potential using the bis-oxonol dye DiBAC(4)3 (Molecular Probes) in a 96-well cell-based kinetic assay system, Fluorescent Imaging Plate Reader (FLIPR) (K. S. Schroeder et al., J. Biomed. Screen., v. 1 pp. 7581 (1996)), hereby incorporated by reference. DiBAC(4)3 is an anionic potentiometric probe which partitions between cells and extracellular solution in a membrane potential-dependent manner. With increasing membrane potential (for example, K^+ depolarization), the probe further partitions into the cell; this is measured as an increase in fluorescence due to dye interaction with intracellular lipids and proteins. Conversely, decreasing membrane potential (hyperpolarization by potassium channel openers) evokes a decrease in fluorescence.
Confluent guinea-pig urinary bladder cells cultured in black clear-bottomed 96-well plates were rinsed twice with […] assay buffer (composition, mM: HEPES, 20; NaCl, 120; KCl, 2; CaCl2, 2; MgCl2, 1; glucose, 5; pH 7.4 at 25° C.) containing 5 μM DiBAC(4)3 and incubated with […] of the buffer in a cell incubator for 30 minutes at 37° C. to ensure dye distribution across the membrane. After recording the baseline fluorescence for 5 minutes, the reference or test compounds, prepared at 10 times the concentration in the assay buffer, were added directly to the wells. Changes in fluorescence were monitored for an additional 25 minutes. Hyperpolarization responses were corrected for any background noise and were normalized to the response observed with 10 μM of the reference compound P1075 (assigned as 100%), a potent opener of smooth muscle KATP channels (Quast et al., Mol. Pharmacol., v. 43 pp. 474-481 (1993)).
Routinely, five concentrations of P1075 or test compounds (log or half-log dilutions) were evaluated and the maximal steady-state hyperpolarization values (expressed as % relative to P1075) plotted as a function of concentration. […]

[2] = tested on: tissue strips obtained from Landrace pig bladders; assay: Functional potassium channel opening activity in isolated bladder strips (field-stimulated twitch); conditions: for EC50: amount causing 50% of the agent's maximal response, read-out: ED50 (the source's name)
Procedure: Compounds were evaluated for functional potassium channel opening activity using tissue strips obtained from Landrace pig bladders.
Landrace pig bladders were obtained from female Landrace pigs of 930 kg. Landrace pigs were euthanized with an intraperitoneal injection of pentobarbital solution, Somlethal®, J. A. Webster Inc., Sterling Mass. The entire bladder was removed and immediately placed into Krebs Ringer bicarbonate solution (composition, mM: NaCl, 120; NaHCO3, 20; dextrose, 11; KCl, 4.7; CaCl2, 2.5; MgSO4, 1.5; KH2PO4, 1.2; K2EDTA, 0.01, equilibrated with 5% CO2/95% O2pH 7.4 at 37° C.). Propranolol (0.004 mM) was included in all of the assays to block β-adrenoceptors. The trigonal and dome portions were discarded. Strips 3-5 mm wide and 20 mm long were prepared from the remaining tissue cut in a circular fashion. The mucosal layer was removed. One end was fixed to a stationary glass rod and the other to a Grass FT03 transducer at a basal preload of 1.0 gram. Two parallel platinum electrodes were included in the stationary glass rod to provide field stimulation of 0.05 Hz, 0.5 milli-seconds at 20 volts. This low frequency stimulation produced a stable twitch response of 100-500 centigrams. Tissues were allowed to equilibrate for at least 60 minutes and primed with 80 mM KCl. A control concentration response curve (cumulative) was generated for each tissue using the potassium channel opener P1075 as the control agonist. […] After a 60 minute rinsing period, a concentration response curve (cumulative) was generated for the test agonist in the same fashion as that used for the control agonist P1075. The maximal efficacy of each compound (expressed as % relative to P1075) is reported. The amount of agent necessary to cause 50% of the agent's maximal response (ED50) was calculated using “ALLFIT” (DeLean et al., Am. J. Physiol., 235, E97 (1980)), hereby incorporated by reference. Agonist potencies were also expressed as an index relative to P1075. The index was calculated by dividing the ED50 for P1075 by the ED50 for the test agonist in a given tissue. Each tissue was used for only one test agonist, and the indices obtained from each tissue were averaged to provide an average index of potency.

- EC50 ([1]; Cavia porcellus): 0.18 µM
- EC50 ([2]; Sus scrofa, Landrace pig bladder strips): 5.8 µM
Structure (SMILES): C=CCC(C)(C)C(NC(=O)c1ccc(Cl)cc1)Nc1c(Nc2cccnc2)c(=O)c1=O (stereo not drawn) [Example 17, 4-chloro-N-(-1-{[3,4-dioxo-2-(3-pyridinylamino)-1-cyclobuten-1-yl]amino}-2,2-dimethyl-4-pentenyl)benzamide]
- Emax ([2]; Sus scrofa, maximal efficacy relative to P1075, Landrace pig bladder strips, field stimulation 0.05 Hz): 92%

- EC50 [1]: 0.51 µM
- EC50 ([2]; Landrace pig bladder strips): 17 µM
Structure (SMILES): CC(C)(Cc1ccccc1)C(NC(=O)c1ccc(Cl)cc1)Nc1c(Nc2cccnc2)c(=O)c1=O (stereo not drawn) [Example 18]
- Maximal Response (% P1075) ([1]; maximal steady-state hyperpolarization, normalized to 10 μM P1075 (100%), GPB cells): 97 % P1075
- Index ([2]; ED50 for P1075 divided by ED50 for the test agonist in a given tissue, averaged): 0.055
- Efficacy (% P1075) ([2]; maximal efficacy relative to P1075, Landrace pig bladder strips, field stimulation 0.05 Hz): 62 % P1075

- melting point: 177 to 178 °C
Structure (SMILES): CC(C)(C)C(NC(=O)c1ccc(I)cc1)NS(=O)(=O)Nc1cccnc1 (stereo not drawn) [Example 34, N-(2,2-dimethyl-1-{[(3-pyridinylamino)sulfonyl]amino}propyl)-4iodobenzamide]
